Laboratory results from ChEMBL document CHEMBL4765442, “Anti-Giardia Drug Discovery: Current Status and Gut Feelings” (J Med Chem, 2020).
≈ marks a conversion by molar mass, not a printed value.

Tests used:
Giardia intestinalis [1] = assay: Antigiardial activity against Giardia intestinalis IMSS:0696:1 incubated for 48 hrs followed by wash out by hemocytometric counting method; type: functional, organism-based; details: Giardia duodenalis, IMSS:0696:1, 48 h
Giardia intestinalis [2] = assay: Antimicrobial activity against Giardia lamblia BRIS/87/HEPU/713 trophozoites measured after 48 hrs by BacTiter-Glo cell viability assay; type: functional, organism-based; details: Giardia duodenalis, BRIS/87/HEPU/713, 48 h
[3] = Selectivity ratio of CC50 for human HeLa cells incubated for 2 days by alamarBlue reagent to IC50 for Giardia lamblia BRIS/87/HEPU/713 measured after 48 hrs by BacTiter-Glo cell viability assay; type: toxicity; details: read-out: Ratio CC50/IC50
Giardia intestinalis [4] = assay: Antimicrobial activity against Giardia lamblia BRIS/83/HEPU/106 trophozoites measured after 2 days by BacTiter-Glo cell viability assay; type: functional, organism-based; details: Giardia duodenalis, BRIS/83/HEPU/106, 48 h
Giardia intestinalis [5] = assay: Antimicrobial activity against Giardia lamblia 713M3 trophozoites measured after 2 days by BacTiter-Glo cell viability assay; type: functional, organism-based; details: Giardia duodenalis, 713M3, 48 h
Giardia intestinalis [6] = assay: Antimicrobial activity against Giardia lamblia WB-M2 trophozoites measured after 2 days by BacTiter-Glo cell viability assay; type: functional, organism-based; details: Giardia duodenalis, WB-M2, 48 h
[7] = Selectivity ratio of CC50 for human HeLa cells incubated for 2 days by alamarBlue reagent to IC50 for Giardia lamblia BRIS/83/HEPU/106 measured after 48 hrs by BacTiter-Glo cell viability assay; type: toxicity; details: read-out: Ratio CC50/IC50
[8] = Selectivity ratio of CC50 for human HeLa cells incubated for 2 days by alamarBlue reagent to IC50 for Giardia lamblia 713M3 measured after 48 hrs by BacTiter-Glo cell viability assay; type: toxicity; details: read-out: Ratio CC50/IC50
[9] = Selectivity ratio of CC50 for human HeLa cells incubated for 2 days by alamarBlue reagent to IC50 for Giardia lamblia WB-M2 measured after 48 hrs by BacTiter-Glo cell viability assay; type: toxicity; details: time 2 day, read-out: Ratio CC50/IC50
Giardia intestinalis [10] = assay: Antigiardial activity against metronidazole-resistant Giardia duodenalis WB-M3; type: functional
Giardia intestinalis [11] = assay: Antigiardial activity against metronidazole-resistant Giardia duodenalis 106-2ID10; type: functional
Giardia intestinalis [12] = assay: Antigiardial activity against metronidazole-resistant Giardia duodenalis 713-M3; type: functional
Giardia intestinalis [13] = assay: Antigiardial activity against Giardia duodenalis BRIS/91/HEPU/1279 incubated for 3 days followed by compound wash-out and measured after 4 days; type: functional; details: time 3 day
Giardia intestinalis [14] = assay: Antigiardial activity against Giardia duodenalis BRIS/83/HEPU/106 incubated for 3 days followed by compound wash-out and measured after 4 days; type: functional; details: time 3 day
Giardia intestinalis [15] = assay: Antigiardial activity against metronidazole-resistant Giardia duodenalis BRIS/83/HEPU/106-2ID10 incubated for 3 days followed by compound wash-out and measured after 4 days; type: functional; details: time 3 day
Giardia intestinalis [16] = assay: Antigiardial activity against metronidazole-resistant Giardia duodenalis WB1B-M3 incubated for 3 days followed by compound wash-out and measured after 4 days; type: functional; details: time 3 day
Giardia intestinalis [17] = assay: Antigiardial activity against Giardia intestinalis WB ATCC 30957 incubated for 72 hrs by hemocytometric counting method; type: functional, organism-based; details: Giardia duodenalis, WB ATCC 30957, 72 h
Giardia intestinalis [18] = assay: Antigiardial activity against Giardia duodenalis GS/M-83-H7 (ATCC 50581) incubated for 3 days by fluorescence method; type: functional, organism-based; details: 72 h
Giardia intestinalis [19] = assay: Antigiardial activity against Giardia duodenalis WB (ATCC 30957) incubated for 3 days by fluorescence method; type: functional, organism-based; details: WB ATCC 30957, 72 h
Giardia intestinalis [20] = assay: Antigiardial activity against Giardia duodenalis G1 incubated for 3 days by fluorescence method; type: functional, organism-based; details: G1, 72 h
Giardia intestinalis [21] = assay: Antigiardial activity against Giardia duodenalis Ah1 incubated for 3 days by fluorescence method; type: functional, organism-based; details: Ah1, 72 h
Giardia intestinalis [22] = assay: Antigiardial activity against Giardia duodenalis Ah2 incubated for 3 days by fluorescence method; type: functional, organism-based; details: Ah2, 72 h
Giardia intestinalis [23] = assay: Antigiardial activity against Giardia duodenalis Ac1 incubated for 3 days by fluorescence method; type: functional, organism-based; details: Ac1, 72 h
Giardia intestinalis [24] = assay: Antigiardial activity against Giardia duodenalis Ac2 incubated for 3 days by fluorescence method; type: functional, organism-based; details: Ac2, 72 h
Giardia intestinalis [25] = assay: Antigiardial activity against Giardia duodenalis Ec1 incubated for 3 days by fluorescence method; type: functional, organism-based; details: Ec1, 72 h
Giardia intestinalis [26] = assay: Antigiardial activity against Giardia duodenalis Ec2 incubated for 3 days by fluorescence method; type: functional, organism-based; details: Ec2, 72 h
[27] = Half-life of the compound; type: physicochemical
[28] = Selectivity ratio of EC50 for Giardia lamblia WB-M2 trophozoites to EC50 for Giardia lamblia BRIS/87/HEPU/713 trophozoites; type: functional
[29] = Selectivity ratio of EC50 for Giardia lamblia 713-M3 trophozoites to EC50 for Giardia lamblia BRIS/87/HEPU/713 trophozoites; type: functional
Giardia intestinalis [30] = assay: Antigiardial activity against Giardia lamblia WB incubated for 48 hrs by haemocytometric counting method; type: functional; details: Giardia duodenalis, read-out: LD50 (the source's name)
Giardia intestinalis [31] = assay: Antigiardial activity against drug susceptible Giardia lamblia incubated for 48 hrs by haemocytometric counting method; type: functional; details: Giardia duodenalis, read-out: LD50 (the source's name)
Giardia intestinalis [32] = assay: Antigiardial activity against nitazoxanide resistant Giardia lamblia N1-INP incubated for 48 hrs by haemocytometric counting method; type: functional; details: Giardia duodenalis, read-out: LD50 (the source's name)
Giardia intestinalis [33] = assay: Growth inhibition of Giardia duodenalis isolate 14-03/F7 measured after 24 hrs by resazurin based assay; type: functional, organism-based; details: isolate 14-03/F7, 24 h
Giardia intestinalis [34] = assay: Antigiardial activity against Giardia lamblia WB (ATCC 30957) incubated for 3 days by [3H]thymidine incorporation based assay; type: functional, organism-based; details: Giardia duodenalis

Compound Cc1ncc([N+](=O)[O-])n1CC(C)OC(=O)Nc1ccccc1 (stereo not drawn) has an IC50 (Giardia intestinalis [1]) of 500 nM.

Compound O=C(CCCCCn1cc(C2CC2)nn1)Nc1ncc([N+](=O)[O-])s1 has an IC50 (Giardia intestinalis [2]) of 100 nM, a selectivity ratio at 48 h [3] of over 500 and an IC50 (Giardia intestinalis [4]) of 100 nM. It also gave an IC50 (Giardia intestinalis [5]) of 100 nM, an IC50 (Giardia intestinalis [6]) of 1800 nM and a selectivity ratio at 48 h [7] of over 27. For the same compound, the selectivity ratio at 48 h [8] was over 27 and the selectivity ratio at 48 h [9] was over 27.

With Cn1c(-c2ccc3c(c2)OCO3)cnc1/C=C/c1ncc([N+](=O)[O-])n1C the MIC (Giardia intestinalis [10]) was 1 µM (≈ 0.353 µg/mL), the MIC (Giardia intestinalis [11]) was 1 µM (≈ 0.353 µg/mL) and the MIC (Giardia intestinalis [12]) was 0.5 µM (≈ 0.177 µg/mL).

In the case of CN1CC/C(=C\c2ncc([N+](=O)[O-])n2C)C1=O, the MLC (Giardia intestinalis [13]) is reported as 1 µM (≈ 0.236 µg/mL), the MLC (Giardia intestinalis [14]) is reported as 1 µM (≈ 0.236 µg/mL) and the MLC (Giardia intestinalis [15]) is reported as 5 µM (≈ 1.18 µg/mL). The MLC (Giardia intestinalis [16]) was 10 µM (≈ 2.36 µg/mL).

With Cc1ncc([N+](=O)[O-])n1CCN1CCN(c2ccnc3cc(Cl)ccc23)CC1 the IC50 (Giardia intestinalis [17]) was 970 nM.

For CCCSc1ccc2nc(NC(=O)OC)[nH]c2c1 [ALBENDAZOLE], the IC50 (Giardia intestinalis [18]) was 55 nM, the IC50 (Giardia intestinalis [19]) was 55 nM and the IC50 (Giardia intestinalis [20]) was 55 nM. For the same compound, the IC50 (Giardia intestinalis [21]) was 55 nM, the IC50 (Giardia intestinalis [22]) was 55 nM and the IC50 (Giardia intestinalis [23]) was 55 nM. It also gave an IC50 (Giardia intestinalis [24]) of 55 nM, an IC50 (Giardia intestinalis [25]) of 55 nM and an IC50 (Giardia intestinalis [26]) of 55 nM. For the same compound, the half-life [27] was 8 h.

For CN(Cc1ccccc1)Cc1cn(CCCCCC(=O)Nc2ncc([N+](=O)[O-])s2)nn1, the IC50 (Giardia intestinalis [2]) was 100 nM, the selectivity ratio at 48 h [3] was over 500 and the IC50 (Giardia intestinalis [4]) was 100 nM. It also gave an IC50 (Giardia intestinalis [5]) of 100 nM, an IC50 (Giardia intestinalis [6]) of 6500 nM and a selectivity ratio at 48 h [7] of over 8. For the same compound, the selectivity ratio at 48 h [8] was over 8, the selectivity ratio at 48 h [9] was over 8 and the Ratio EC50 [28] was 65. It also gave a Ratio EC50 [29] of 20.

Cc1ncc([N+](=O)[O-])n1CCOC(=O)Nc1ccc(Cl)cc1 showed an IC50 (Giardia intestinalis [1]) of 500 nM.

Compound COc1ccc2[nH]c([S+]([O-])Cc3ncc(C)c(OC)c3C)nc2c1 (stereo not drawn) [OMEPRAZOLE] has an LC50 (Giardia intestinalis [30]) of 116 nM, an LC50 (Giardia intestinalis [31]) of 116 nM and an LC50 (Giardia intestinalis [32]) of 544 nM.

Cc1ncc([N+](=O)[O-])n1CC(C)OC(=O)Nc1ccc(Cl)cc1 (stereo not drawn) showed an IC50 (Giardia intestinalis [1]) of 500 nM.

For CC(=O)Oc1ccccc1C(=O)Nc1ncc([N+](=O)[O-])s1 [NITAZOXANIDE], the half-life [27] was 7.3 h.

For Cc1ncc([N+](=O)[O-])n1CCOC(=O)Nc1ccccc1, the IC50 (Giardia intestinalis [1]) was 500 nM.

With Cc1ncc([N+](=O)[O-])n1CC(C)OC(=O)Nc1ccc([N+](=O)[O-])cc1 (stereo not drawn) the IC50 (Giardia intestinalis [1]) was 500 nM.

With CCCCCCCCCCC[C@@H](C[C@@H]1OC(=O)[C@H]1CCCCCC)OC(=O)[C@H](CC(C)C)NC=O [ORLISTAT] the IC50 (Giardia intestinalis [33]) was 2800 nM.

Compound CCS(=O)(=O)CCn1c([N+](=O)[O-])cnc1C [TINIDAZOLE] has an IC50 (Giardia intestinalis [18]) of 300 nM, an IC50 (Giardia intestinalis [19]) of 300 nM and an IC50 (Giardia intestinalis [20]) of 300 nM. It also gave an IC50 (Giardia intestinalis [21]) of 300 nM, an IC50 (Giardia intestinalis [22]) of 300 nM and an IC50 (Giardia intestinalis [23]) of 300 nM. For the same compound, the IC50 (Giardia intestinalis [24]) was 300 nM, the IC50 (Giardia intestinalis [25]) was 300 nM and the IC50 (Giardia intestinalis [26]) was 300 nM. For the same compound, the IC50 (Giardia intestinalis [34]) was 300 nM and the half-life [27] was 12 h.

In the case of Cc1ncc([N+](=O)[O-])n1CCOC(=O)Nc1ccc([N+](=O)[O-])cc1, the IC50 (Giardia intestinalis [1]) is reported as 500 nM.
